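Protocol summary: plate cells (96-well), add compound at 5 concentrations, incubate 48 h, interpolate endpoints linearly. Here, GI50 denotes the concentration required for 50% inhibition of growth. Definition used: TGI = concentration required for complete inhibition of growth.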
Key:
Assay in all cases: growth of human tumour cells (NCI), 48 h
[1] = test system: SK-MEL-28 melanoma
[2] = test system: NCI-H23 lung
[3] = test system: EKVX NSCLC
[4] = test system: TK-10 renal
[5] = test system: UO-31 renal
[6] = test system: COLO 205 colon
[7] = test system: K-562 leukemia
[8] = test system: IGROV1 ovarian
[9] = test system: HT29 colon
[10] = test system: SK-MEL-2 melanoma

Row | SMILES | GI50 [1] | TGI [1] | GI50 [2] | TGI [2] | GI50 [3] | TGI [3] | GI50 [4] | TGI [4] | GI50 [5] | TGI [5] | GI50 [6] | TGI [6] | GI50 [7] | TGI [7] | GI50 [8] | TGI [8] | GI50 [9] | TGI [9] | GI50 [10] | TGI [10]
1 | C[C@@H](Oc1cc(-n2cnc3ccc(OCC4CCN(C)CC4)cc32)sc1C(N)=O)c1ccccc1C(F)(F)F | 0.637 µM | 4.58 µM | 0.118 µM | 3.37 µM | 0.653 µM | 5.04 µM | 0.427 µM | 3.98 µM | 0.948 µM | 4.33 µM | 0.0752 µM | 0.401 µM | 0.0832 µM | 3.31 µM | 0.217 µM | 4.41 µM | 0.0721 µM | 2.63 µM | – | –
2 | O=C1/C(=C\c2ccccc2)CN(C(=O)c2ccccc2F)C/C1=C\c1ccccc1 | 2.08 µM | 4.05 µM | 2.13 µM | 4.84 µM | – | – | 2.33 µM | 5.75 µM | 1.53 µM | 3.24 µM | 2.05 µM | 4.03 µM | 0.992 µM | > 20.7 µM | 2.08 µM | 4.46 µM | 1.48 µM | 4.17 µM | 2.95 µM | 8.3 µM
3 | CC1(C)CC[C@]2(C(=O)O)CCC3(C)C(=CCC4[C@@]5(C)CC[C@H](OC6OCC(O)C(O)C6OC6OC(CO)C(O)C(O)C6O)C(C)(C)C5CC[C@]43C)C2C1 (some centres undefined) | – | 4.39 µM | – | 4.2 µM | – | 3.85 µM | – | 4.42 µM | – | 3.71 µM | – | 3.49 µM | – | – | – | 5.23 µM | – | 5.23 µM | – | –
4 | c1ccc2c(c1)SCCCSCCCS2 | – | > 100 µM | – | > 100 µM | – | > 100 µM | – | > 100 µM | – | – | – | > 100 µM | – | > 100 µM | – | > 100 µM | – | – | – | –
5 | CC/C(=C(/CC)c1ccc(OP(=O)([O-])[O-])cc1)c1ccc(OP(=O)([O-])[O-])cc1.N.N.N.N.[Pt+4].[Pt+4] | 2.07 µM | 6.28 µM | – | – | 7.77 µM | 41.9 µM | 4.73 µM | > 100 µM | 4.3 µM | 25.4 µM | – | – | 4.63 µM | > 100 µM | 5.36 µM | 53.6 µM | 16.9 µM | 90.3 µM | 13.1 µM | > 100 µM
6 | Cc1cc2c(C)nn(Cc3ccc(Cl)cc3Cl)c2c(C#N)c1C | – | > 100 µM | – | > 100 µM | – | > 100 µM | – | > 100 µM | – | > 100 µM | – | – | – | – | – | > 100 µM | – | > 100 µM | – | > 100 µM
7 | CCN=C(N)CSS(=O)(=O)O | – | > 100 µM | – | > 100 µM | – | > 100 µM | – | > 100 µM | – | – | – | > 100 µM | – | > 100 µM | – | > 100 µM | – | > 100 µM | – | > 100 µM
8 | CCN1N=CSC12C(=O)N(c1ccccc1)C(=O)N2c1ccccc1 (centres undefined) | – | > 100 µM | – | > 100 µM | – | > 100 µM | – | > 100 µM | – | > 100 µM | – | > 100 µM | – | > 100 µM | – | > 100 µM | – | > 100 µM | – | –
9 | CC1(C)OCC(C2OC(On3nnc4ccc(Cl)cc43)C3OC(C)(C)OC23)O1 (centres undefined) | – | > 100 µM | – | > 100 µM | – | > 100 µM | – | > 100 µM | – | – | – | > 100 µM | – | > 100 µM | – | > 100 µM | – | > 100 µM | – | > 100 µM
10 | COc1ccc(C(=O)Nc2ccccc2C#N)cc1 | – | > 100 µM | – | > 100 µM | – | > 100 µM | – | > 100 µM | – | – | – | > 100 µM | – | > 100 µM | – | > 100 µM | – | > 100 µM | – | > 100 µM
11 | COc1ccc2c(c1)CC[C@@H]1C2CC[C@]2(C)C(=O)N(C)C(=O)CC12 (some centres undefined) | – | > 100 µM | – | > 100 µM | – | > 100 µM | – | > 100 µM | – | > 100 µM | – | > 100 µM | – | > 100 µM | – | > 100 µM | – | > 100 µM | – | –
12 | Cc1nc(N=C(N)N)nc2ccc3ccccc3c12 | 1.53 µM | 3.71 µM | 2.33 µM | 7.31 µM | – | – | – | – | 2.14 µM | 8.52 µM | 1.13 µM | 3.13 µM | 1.43 µM | 6.13 µM | 1.53 µM | 7.87 µM | 1.95 µM | 4.96 µM | 1.72 µM | 3.37 µM
13 | Nc1ccc(C(=O)O)c2[nH]c3ccccc3c(=O)c12 | – | – | – | – | – | – | – | > 100 µM | – | > 100 µM | – | > 100 µM | – | > 100 µM | – | > 100 µM | – | > 100 µM | – | > 100 µM
14 | Cc1cc(C)c2c(c1C)CN1CN2Cc2c(C)c(C)cc(C)c21 | – | > 100 µM | – | > 100 µM | – | > 100 µM | – | > 100 µM | – | > 100 µM | – | > 100 µM | – | > 100 µM | – | > 100 µM | – | > 100 µM | – | –
15 | COc1ccc(Br)c(CCCCC(=O)O)c1 | – | > 100 µM | – | > 100 µM | – | > 100 µM | – | > 100 µM | – | – | – | > 100 µM | – | > 100 µM | – | > 100 µM | – | > 100 µM | – | –
16 | Oc1ccc(-c2nc(-c3ccc(F)cc3)c(-c3ccncc3)[nH]2)cc1 | 6.05 µM | 84.7 µM | 36.2 µM | > 100 µM | 13.6 µM | > 100 µM | 7.89 µM | > 100 µM | 3.44 µM | 20.2 µM | 4.77 µM | 40.5 µM | 15.9 µM | > 100 µM | 4.3 µM | 29.4 µM | 3.78 µM | > 100 µM | – | –
17 | O=C1NCC2=C1CCC1c3ccccc3CCN21 (centres undefined) | – | > 100 µM | – | > 100 µM | – | > 100 µM | – | > 100 µM | – | > 100 µM | – | > 100 µM | – | – | – | > 100 µM | – | > 100 µM | – | > 100 µM
18 | CC(=O)/C(=C\n1c(=S)[nH]c2ccc([N+](=O)[O-])cc21)C(=O)Nc1ccccc1C | – | > 100 µM | – | > 100 µM | – | > 100 µM | – | – | – | – | – | > 100 µM | – | > 100 µM | – | > 100 µM | – | > 100 µM | – | > 100 µM
19 | COc1cc(C2c3cc4c(cc3[C@@H](OCCN)[C@H]3COC(=O)C23)OCO4)cc(OC)c1O (some centres undefined) | – | 2.37 µM | – | 0.731 µM | – | 2.22 µM | – | > 19.8 µM | – | 13.6 µM | – | 6.51 µM | – | – | – | 4.55 µM | – | 2.69 µM | – | 0.883 µM
20 | COc1cc(-c2[nH]ncc2CCCC(=O)Nc2ccccc2[N+](=O)[O-])ccc1O | – | > 100 µM | – | > 100 µM | – | > 100 µM | – | > 100 µM | – | > 100 µM | – | > 100 µM | – | > 100 µM | – | > 100 µM | – | > 100 µM | – | –
21 | N/C(=N\N=C=C1C(=O)Nc2ccc(F)cc21)NO | – | > 100 µM | – | > 100 µM | – | > 100 µM | – | > 100 µM | – | – | – | > 100 µM | – | > 100 µM | – | > 100 µM | – | > 100 µM | – | > 100 µM
22 | CNS(=O)(=O)NN(C)S(=O)(=O)c1ccc(C)cc1 | – | > 100 µM | – | > 100 µM | – | > 100 µM | – | > 100 µM | – | > 100 µM | – | > 100 µM | – | – | – | > 100 µM | – | > 100 µM | – | > 100 µM
23 | COc1ccc(N=C/C=C/C(=C/COC(C)=O)OC(C)=O)cc1 | – | 65.9 µM | – | 91.7 µM | – | > 100 µM | – | > 100 µM | – | – | – | 73.5 µM | – | 19.2 µM | – | 45.1 µM | – | 70.6 µM | – | 48.1 µM
24 | CCOC(=O)c1c(-c2ccccc2)[nH]c2ccccc2c1=O | – | > 100 µM | – | > 100 µM | – | > 100 µM | – | > 100 µM | – | > 100 µM | – | > 100 µM | – | > 100 µM | – | > 100 µM | – | > 100 µM | – | –
25 | C#CCSc1nnnn1-c1ccc(Br)c(C)c1 | 50.1 µM | > 100 µM | 21.5 µM | 88.6 µM | 4.86 µM | 97.3 µM | 35.4 µM | > 100 µM | – | – | 27.2 µM | 84.3 µM | 27.6 µM | > 100 µM | 2.77 µM | 9.16 µM | 30.3 µM | 96 µM | 21.6 µM | 57 µM
26 | C=C(CNCCc1ccc(O)cc1)[C@@H]1CC[C@]2(CO)CC[C@]3(C)[C@H](CC[C@@H]4[C@@]5(C)CCC(NCCO)C(C)(C)[C@@H]5CC[C@]43C)[C@@H]12 (some centres undefined) | 1.81 µM | 3.38 µM | 1.78 µM | 3.49 µM | 1.6 µM | 3.41 µM | 1.7 µM | 3.14 µM | 1.47 µM | 2.86 µM | 1.54 µM | 3.13 µM | – | – | 1.94 µM | 3.9 µM | 0.395 µM | 1.57 µM | 1.79 µM | 3.38 µM
27 | c1ccc(CNc2nc(Nc3ccc(-c4nc5ccccc5[nH]4)cc3)c3cn[nH]c3n2)cc1 | 2.15 µM | 6.68 µM | 2.28 µM | 6.13 µM | 3.27 µM | 23.6 µM | 2.93 µM | 8.35 µM | 2.02 µM | 6.02 µM | 1.78 µM | 3.72 µM | – | – | 2.49 µM | 6.99 µM | 2.09 µM | 5.57 µM | – | –
28 | CC1(C)CCC(CN2CCN(c3ccc(C(=O)NS(=O)(=O)c4ccc(NCC5CCOCC5)c([N+](=O)[O-])c4)c(Oc4cnc5[nH]ccc5c4)c3)CC2)=C(c2ccc(Cl)cc2)C1 | 1.41 µM | 6.79 µM | 3.13 µM | 12.5 µM | – | – | 2.26 µM | 6.34 µM | 2.57 µM | 8.26 µM | 1.95 µM | 3.7 µM | 3.5 µM | 26.9 µM | 2.98 µM | 9.57 µM | 2.49 µM | 6.45 µM | 1.63 µM | 3.36 µM
